Converted amounts (≈) assume the structure as drawn. “And” between values parts separate entries of the source, which are not always exact repeats. Equal values may be shown once. Blank lines part the entries; values can stand above or below the compound they belong to.
Assays:
Test in all cases: ≥ marks a high value that may be exact or a test limit, other limits are often not marked, values filed in µg/mL are converted to µM
Candida krusei ATCC 6258 = test system: Candida krusei ATCC 6258
[1] = test system: Mannheimia haemolytica 82-25
[2] = test system: Pseudomonas aeruginosa ATCC 27312
[3] = test system: Enterococcus faecalis ATCC 29212
[4] = test system: Escherichia coli ATCC 12795
[5] = test system: Staphylococcus aureus ATCC 29213
[6] = test system: Klebsiella pneumoniae ATCC 10031
[7] = test system: Serratia marcescens ATCC 14756
Escherichia coli TOP 10 = test system: Escherichia coli TOP 10
[8] = test system: Shigella sonnei ATCC 11060
[9] = test system: Salmonella enterica subsp. enterica serovar Typhimurium ATCC 13311
[10] = test system: Listeria monocytogenes 10403s
Vibrio cholerae O1 Inaba = test system: Vibrio cholerae O1 Inaba
[11] = test system: Pseudomonas aeruginosa ATCC 27853
[12] = test system: Staphylococcus aureus ATCC 25923
[13] = test system: Bacillus cereus ATCC 11778
[14] = test system: Staphylococcus epidermidis ATCC 12228
Acinetobacter baumannii = test system: Acinetobacter baumannii
[15] = test system: Escherichia coli ATCC 25922
Escherichia coli O157:H7 = test system: Escherichia coli O157:H7
[16] = test system: Salmonella enterica subsp. enterica serovar Enteritidis 706 RIVM
[17] = test system: Salmonella enterica subsp. enterica serovar Typhimurium ATCC 14028
[18] = test system: Pseudomonas aeruginosa RP73
[19] = test system: Staphylococcus aureus WKZ2
[20] = test system: Escherichia coli ATCC 35218
Listeria monocytogenes = test system: Listeria monocytogenes
[21] = test system: Staphylococcus aureus 1399/17
[22] = test system: Staphylococcus aureus SG511
Escherichia coli ML-35p = test system: Escherichia coli ML-35p
[23] = test system: Escherichia coli ESBL 521/17
[24] = test system: Klebsiella pneumoniae ESBL 344/17
[25] = test system: Pseudomonas aeruginosa 522/17
[26] = test system: Staphylococcus aureus ATCC 33591
[27] = test system: Acinetobacter baumannii 7226/16
[28] = test system: Staphylococcus epidermidis
Staphylococcus aureus MR = test system: Staphylococcus aureus MR
Candida albicans = test system: Candida albicans
[29] = test system: Pseudomonas aeruginosa 910
[30] = test system: Pseudomonas aeruginosa H103
[31] = test system: Pseudomonas aeruginosa PAO1
[32] = test system: Enterococcus faecalis NCTC 12203
Escherichia coli UB1005 = test system: Escherichia coli UB1005
[33] = test system: Pseudomonas aeruginosa 253
[34] = test system: Mycobacterium tuberculosis H37Rv
[35] = test system: Salmonella enterica serovar Typhimurium
[36] = test system: Pseudomonas aeruginosa 919
Escherichia coli = test system: Escherichia coli

SMILES: C[C@H](N)C(=O)N[C@@H](CC(=O)O)C(=O)N[C@@H](C)C(=O)N[C@@H](CC(=O)O)C(=O)N[C@@H](CC(=O)O)C(=O)N[C@@H](CC(=O)O)C(=O)N[C@@H](CC(=O)O)C(=O)N[C@@H](CC(=O)O)C(=O)N[C@@H](CCCCN)C(=O)O [ADADDDDDK]
MIC (Candida krusei ATCC 6258): ≥ 5110 µM
MIC [1]: ≥ 230 µM
MIC [2]: ≥ 1500 µM
MIC [3]: 1800 µM (≈ 1760 µg/mL)
MIC [4]: ≥ 850 µM
MIC [5]: 1800 µM (≈ 1760 µg/mL)
MIC [6]: ≥ 900 µM
MIC [7]: ≥ 1500 µM

SMILES: CC[C@H](C)[C@H](NC(=O)[C@H](CCCCN)NC(=O)[C@H](CO)NC(=O)[C@@H](NC(=O)[C@@H](NC(=O)[C@H](CC(N)=O)NC(=O)[C@H](CCCCN)NC(=O)[C@H](Cc1ccccc1)NC(=O)[C@H](C)NC(=O)[C@@H]1CCCN1C(=O)[C@H](CC(C)C)NC(=O)[C@@H](N)Cc1ccccc1)C(C)C)[C@@H](C)CC)C(=O)N[C@@H](CC(C)C)C(=O)N[C@@H](CCCCN)C(=O)N[C@@H](C)C(=O)N[C@@H](CC(C)C)C(=O)N[C@@H](CCCCN)C(=O)N[C@@H](CCCCN)C(=O)N[C@@H](CCCCN)C(=O)N[C@H](C(N)=O)C(C)C [FLPAFKNVISKILKALKKKV]
MIC (Escherichia coli TOP 10): 5.47 µM (≈ 12.5 µg/mL)

SMILES: CC[C@H](C)[C@H](NC(=O)[C@H](CCCN=C(N)N)NC(=O)[C@H](CCCCN)NC(=O)[C@H](C)NC(=O)[C@@H](NC(=O)[C@@H](N)CCCCN)[C@@H](C)CC)C(=O)N[C@@H](Cc1c[nH]c2ccccc12)C(=O)N[C@@H](CCCCN)C(=O)N[C@H](C(=O)N[C@@H](CC(C)C)C(=O)N[C@@H](CCCN=C(N)N)C(=O)N[C@@H](CCCN=C(N)N)C(=O)N[C@@H](CCCN=C(N)N)C(=O)N[C@@H](CC(C)C)C(=O)N[C@@H](Cc1ccccc1)C(N)=O)[C@@H](C)CC [KIAKRIWKILRRRLF]
MIC [8]: 1.96 µM (≈ 3.91 µg/mL)
MIC [9]: 0.976 µM (≈ 1.95 µg/mL)
MIC [10]: 0.976 µM (≈ 1.95 µg/mL)
MIC (Vibrio cholerae O1 Inaba): 1.96 µM (≈ 3.91 µg/mL)
MIC [3]: 15.6 µM (≈ 31.2 µg/mL)
MIC [11]: 3.91 µM (≈ 7.81 µg/mL)
MIC [12]: 3.91 µM (≈ 7.81 µg/mL)
MIC [13]: 1.96 µM (≈ 3.91 µg/mL)
MIC [14]: 1.96 µM (≈ 3.91 µg/mL)
MIC (Acinetobacter baumannii): 1.96 µM (≈ 3.91 µg/mL)
MIC [15]: 7.82 µM (≈ 15.6 µg/mL)
MIC (Escherichia coli O157:H7): 7.82 µM (≈ 15.6 µg/mL)

Other lines, results leading:

MIC [16]: ≥ 50 µM
MIC [17]: > 12.5 µM
MIC [18]: 12.5 µM (≈ 38.9 µg/mL)
MIC [3]: 50 µM (≈ 156 µg/mL)
MIC [19]: 25 µM (≈ 77.8 µg/mL)
MIC [20]: 25 µM (≈ 77.8 µg/mL)
MIC (Listeria monocytogenes): ≥ 50 µM
MIC [15]: 25 µM (≈ 77.8 µg/mL)
SMILES: CC[C@H](C)[C@H](NC(=O)[C@@H]1CCCN1)C(=O)N[C@@H](CCSC)C(=O)N[C@@H](Cc1ccc(O)cc1)C(=O)N[C@@H](CCCCN)C(=O)N[C@H](C(=O)N1CCC[C@H]1C(=O)N[C@@H](CC(C)C)C(=O)N[C@H](C(=O)N[C@@H](CCCN=C(N)N)C(=O)N[C@@H](CCCCN)C(=O)N[C@@H](CCCCN)C(=O)N[C@@H](CO)C(=O)N[C@@H](CC(C)C)C(=O)N[C@@H](CCCN=C(N)N)C(=O)N[C@@H](CCCN=C(N)N)C(=O)N[C@H](C(=O)N[C@@H](CC(C)C)C(=O)N[C@@H](CO)C(=O)N[C@@H](CCC(=O)O)C(=O)N[C@@H](CCCN=C(N)N)C(=O)NCC(=O)N[C@@H](CC(C)C)C(=O)N[C@@H](CC(C)C)C(=O)N[C@@H](CCCCN)C(=O)N[C@@H](CC(=O)O)C(=O)O)[C@@H](C)O)[C@@H](C)CC)C(C)C [PIMYKVPLIRKKSLRRTLSERGLLKD]

MIC [21]: ≥ 128 µM
MIC [22]: 2 µM (≈ 3.72 µg/mL)
MIC (Escherichia coli ML-35p): 8 µM (≈ 14.9 µg/mL)
MIC [23]: 16 µM (≈ 29.8 µg/mL)
MIC [24]: 16 µM (≈ 29.8 µg/mL)
MIC [25]: ≥ 64 µM
MIC [26]: 16 µM (≈ 29.8 µg/mL)
MIC [27]: 16 µM (≈ 29.8 µg/mL)
SMILES: CC[C@H](C)[C@H](NC(=O)[C@H](CCCN=C(N)N)NC(=O)[C@@H](NC(=O)[C@@H]1CCCN1C(=O)[C@@H]1CCCN1C(=O)[C@H](CCCN=C(N)N)NC(=O)[C@H](CCCN=C(N)N)NC(=O)[C@H](Cc1ccccc1)NC(=O)[C@@H]1CCCN1C(=O)[C@H](CC(C)C)NC(=O)[C@H](CCCN=C(N)N)NC(=O)[C@H](Cc1ccccc1)NC(=O)[C@@H](N)CCCN=C(N)N)[C@@H](C)CC)C(=O)N[C@@H](Cc1cnc[nH]1)C(N)=O [RFRLPFRRPPIRIH]

MIC [28]: 0.12 µM and 0.3 µM
MIC (Staphylococcus aureus MR): 1.2 µM (≈ 2 µg/mL)
MIC (Candida albicans): 2.4 µM (≈ 4 µg/mL)
MIC [29]: 16 µM (≈ 26.6 µg/mL)
MIC [30]: 1.2 µM (≈ 2 µg/mL)
MIC [3]: 2.4 µM (≈ 4 µg/mL)
MIC [12]: 4 µM (≈ 6.66 µg/mL)
MIC [31]: 8 µM (≈ 13.3 µg/mL)
MIC [32]: 1.2 µM (≈ 2 µg/mL)
MIC (Escherichia coli UB1005): 0.601 µM (≈ 1 µg/mL)
MIC [33]: 8 µM (≈ 13.3 µg/mL)
MIC [5]: 1.2 µM (≈ 2 µg/mL)
MIC [34]: 1.92 µM (≈ 3.2 µg/mL)
MIC [35]: 2.4 µM (≈ 4 µg/mL)
MIC [36]: 16 µM (≈ 26.6 µg/mL)
MIC [15]: 2 µM (≈ 3.33 µg/mL)
MIC (Escherichia coli): 1.2 µM (≈ 2 µg/mL)
SMILES: CC[C@H](C)[C@H](NC(=O)[C@H](CCCN=C(N)N)NC(=O)[C@H](Cc1c[nH]c2ccccc12)NC(=O)[C@H](CCCN=C(N)N)NC(=O)[C@@H](N)CCCN=C(N)N)C(=O)N[C@H](C(=O)N[C@H](C(=O)N[C@H](C(=O)N[C@@H](CCCN=C(N)N)C(=O)N[C@H](C(=O)N[C@@H](CCCN=C(N)N)C(=O)N[C@@H](CCCN=C(N)N)C(=O)O)C(C)C)[C@@H](C)CC)C(C)C)C(C)C [RRWRIVVIRVRR]
